The values below are quoted from earlier work in patent publication US20090111747A1, “Anti-Diabetic or Anti-Hypertensive Dietary Supplement” (priority 2005, published 2009).

Ends that are not written are not given here.

For the first data set, the system named is mammalian α-glucosidase. Conditions: literature, Oki et al., 1999.
Regarding Val-Trp, the “inhibitory effect on mammalian α-glucosidase” value was “neither the hydrolysate nor the peptides had any significant inhibitory effect”. Consider “Tyr-Tyr-Pro-Leu (YYPL; printed: Tyr-Tyr-Pro-Leu)”, for which the “inhibitory effect on mammalian α-glucosidase” value is “neither the hydrolysate nor the peptides had any significant inhibitory effect”.

A further data set has as its system rat intestinal α-glucosidase. Conditions: literature, Inoue et al., 2000.
With IISIGR, the “activity against rat intestinal α-glucosidase” value (“activity” below) is “active against rat intestinal α-glucosidase”.

Consider “Ile-Ile-Ser-Ile-Gly (IISIG; printed: Ile-Ile-Ser-Ile-Gly)”, for which the “activity” value is “active against rat intestinal α-glucosidase”. Take “Val-Phe-Ile-Lys-Ala (VFIKA; printed: Val-Phe-Ile-Lys-Ala)”: the “activity” value is “active against rat intestinal α-glucosidase”.

VFIKAA: the “activity” value was “active against rat intestinal α-glucosidase”. On to VFIKAAA, for which the “activity” value is “active against rat intestinal α-glucosidase”.
